Experiment [1] relates to HCV genotype 1b replicon cell line (APC144; Huh7 cell background). Description: HCV Genotype 1b Replicon Assay (Renilla luciferase readout). To be noted: Hepatitis C virus, Huh-7; read-out: Genotype 1b (pEC50 class, HCV genotype 1b replicon assay) (converted). It is filed as cell-based. The text has this: Assay 1: HCV Genotype 1b Replicon Assay
The HCV genotype 1b replicon cell line was obtained from Apath LLC (Brooklyn, N.Y.) (APC144; Huh7 cell background). This subgenomic replicon contains the N-terminus of the HCV core protein fused to the neomycin-resistance selectable marker. The EMCV IRES lies downstream and drives expression of humanized Renilla luciferase fused to the non-structural proteins NS3-NS5B. This cell line was used to determine compound potency using the luciferase activity readout as a measurement of compound inhibition of replicon levels.
(§1) Cells were grown at 37° C. in a 5% CO2 humidified incubator in DMEM (Invitrogen) with 10% FBS (HyClone), 1×NEAA (Invitrogen), 1× Pen-Strep (Invitrogen), and 500 μg/mL G418 (Invitrogen). On day 1 of the assay, cells were plated at 10,000 cells/well in white 96-well tissue culture plates (Costar) in 200 μL media lacking G418. Four hours later, once the cells have adhered, the media was removed and replaced with media (no G418) containing dose-responses of test compounds. Compounds were initially diluted in DMSO and then diluted another 200× in media to bring the final DMSO concentration down to 0.5%. The cells were incubated with test compounds for 48 hours. At the end of the incubation period, media and compound were removed from the plates and the luciferase activity was determined using Promega Renilla-Glo reagents.
To analyze the data, the luciferase activity was plotted vs. the compound concentration, and EC50 values were determined from a 4-parameter robust fit model with the GraphPad Prism software package (GraphPad Software, Inc., San Diego, Calif.). Results are expressed as the negative decadic logarithm of the EC50 value, pEC50.
Test compounds having a higher pEC50 value in this assay show greater inhibition of HCV genotype 1b replication.

Experiment [2] has as its system HCV genotype 1a replicon cell line (APC89; Huh7.5 cell background). Nature of the experiment: HCV Genotype 1a Replicon Assay (NS3-specific protease activity readout). It is filed as cell-based. To be noted: Hepatitis C virus. The procedure: Assay 2: HCV Genotype 1a Replicon Assay
The HCV genotype 1a replicon cell line was obtained from Apath LLC (APC89; Huh7.5 cell background). This subgenomic replicon contains the N-terminus of the HCV core protein fused to the neomycin-resistance selectable marker. The EMCV IRES lies downstream and drives expression of the non-structural proteins NS3-NS5B. Compound potencies were determined using the NS3-specific protease activity in lysates as a measurement of compound inhibition of replicon levels.
as §1, with “850” for “500”, “15,000” for “10,000”, “black” for “white”, “had” for “have”, “48 or 72” for “48”, “plates.” for “plates and the luciferase activity was determined using Promega Renilla-Glo reagents.”
To determine the NS3-specific protease activity in lysates, the cells were lysed at room temperature in 50 μL/well of 50 mM Hepes pH 7.5, 150 mM NaCl, 15% Glycerol, 0.15% Triton X-100, 10 mM DTT for 20 minutes with shaking. 50 μL of an NS3/4a protease-specific FRET substrate (Anaspec RET S1 Cat#22991) was then added to the wells at a final concentration of 15 μM. The plates were incubated at 37° C. for 20 minutes, which corresponds to a timepoint at which the protease activity is still in the linear phase. Protease activity was determined by measuring fluorescence (Excitation: 340 nm; Emission: 509 nm).
To analyze the data, the fluorescence was plotted vs. the compound concentration, and EC50 values were determined from a 4-parameter robust fit model using GraphPad Prism software.

Where [3] appears, read: compounds incubated for 48 hours, read-out: Genotype 1a (pEC50 class, HCV genotype 1a replicon assay), * results (converted).
[4] abbreviates: 72 hour incubation, read-out: Genotype 1a (pEC50 class, HCV genotype 1a replicon assay) (converted).

Like-named read-outs stand apart in the source and are kept apart here.

As for `COC(=O)N[C@H](C(=O)N1CCC[C@H]1c1nc(-c2ccc(-c3ccc(NC(=O)c4ccc(N5CCN(C(=O)OC(C)(C)C)CC5)cc4)cc3)cc2)c[nH]1)C(C)C` [Example 3, 4-[4-(4′-{2-[(S)-1-((S)-2-Methoxycarbonylamino-3-methyl-butyryl)-pyrrolidin-2-yl]-1H-imidazol-4-yl}-biphenyl-4-ylcarbamoyl)-phenyl]-piperazine-1-carboxylic acid tert-butyl ester], the EC50 in experiment [1] is under 0.1 nM; in experiment [2] (setting [3]) it was 1 to 10 nM.

On to `COC(=O)N[C@H](C(=O)N1CCC[C@H]1c1nc(-c2ccc(-c3ccc(C(=O)Nc4ccc(N5CCN(C(=O)[C@]6(C)CCCN6C(=O)C(C)(C)O)C[C@H]5C)nc4)cc3OC(F)(F)F)cc2)c[nH]1)C(C)C` [Example 69], for which the results for the EC50 in experiment [1] and in experiment [2] (setting [4]) were under 0.1 nM and 0.1 to 1 nM, respectively.

`COC(=O)N[C@H](C(=O)N1CCC[C@H]1c1nc(-c2ccc(-c3ccc(NC(=O)c4ccc(N5C[C@H](C)N(C(=O)c6c[nH]cn6)C[C@H]5C)nc4)cc3OC(F)(F)F)cc2)c[nH]1)C(C)C` [Example 32]: the EC50 in experiment [1] and in experiment [2] (setting [4]) was under 0.1 nM each time.

As for `COC(=O)N[C@H](C(=O)N1CCC[C@H]1c1nc(-c2ccc(-c3cc(F)c(NC(=O)c4ccc(N5C[C@H](C)N(C(=O)[C@H]6CC6(C)C)C[C@H]5C)nc4)cc3OC(F)(F)F)cc2)c[nH]1)C(C)C` [Example 57], the EC50 in experiment [1] and in experiment [2] (setting [4]) was under 0.1 nM in each case.

`COC(=O)N[C@H](C(=O)N1CCC[C@H]1c1nc(-c2ccc(-c3ccc(NC(=O)c4ccc(N5CCN(C(=O)C6CC6)C[C@H]5C)nc4)cc3)cc2)c[nH]1)C(C)C` [Example 12, ((S)-1-{(S)-2-[4-(4′-{[6-((R)-4-Cyclopropanecarbonyl-2-methyl-piperazin-1-yl)-pyridine-3-carbonyl]-amino}-biphenyl-4-yl)-1H-imidazol-2-yl]-pyrrolidine-1-carbonyl}-2-methyl-propyl)-carbamic acid methyl ester]: the EC50 in experiment [1] is under 0.1 nM; in experiment [2] (setting [4]) it was 0.1 to 1 nM.

As for `COCCNC(=O)N1CCN(c2ccc(C(=O)Nc3cc(OC(F)(F)F)c(-c4ccc(-c5c[nH]c([C@@H]6CCCN6C(=O)[C@@H](NC(=O)OC)C(C)C)n5)cc4)cc3F)cn2)[C@H](C)C1` [Example 27-38], the EC50 in experiment [1] and in experiment [2] (setting [4]) was under 0.1 nM throughout.

As for `COC(=O)N[C@H](C(=O)N1CCC[C@H]1c1nc(-c2ccc(-c3ccc(NC(=O)c4ccc(N5CCN(C(=O)[C@H]6CC6(C)C)C[C@H]5C)nc4)cc3)cc2)c[nH]1)C(C)C` [Example 14, [(S)-1-((S)-2-{4-[4′-({6-[(R)-4-((S)-2,2-Dimethyl-cyclopropane-carbonyl)-2-methyl-piperazin-1-yl]-pyridine-3-carbonyl}-amino)-biphenyl-4-yl]-1H-imidazol-2-yl}-pyrrolidine-1-carbonyl)-2-methyl-propyl]-carbamic acid methyl ester], the EC50 in experiment [1] and in experiment [2] (setting [4]) was under 0.1 nM throughout.

Take `COC(=O)N[C@H](C(=O)N1CCC[C@H]1c1nc(-c2ccc(-c3ccc(NC(=O)c4ccc(N5CCN(C(=O)C6CC6)C[C@H]5C)nc4)cc3C(F)(F)F)cc2)c[nH]1)C(C)C` [Example 35]: the EC50 in experiment [1] was under 0.1 nM; in experiment [2] (setting [4]), 0.1 to 1 nM.

With `COC(=O)N[C@H](C(=O)N1CCC[C@H]1c1nc(-c2ccc(-c3cc(F)c(NC(=O)c4ccc(N5CCN(C(=O)[C@]6(C)CCCN6C(=O)CN(C)C)C[C@H]5C)nc4)cc3OC(F)(F)F)cc2)c[nH]1)C(C)C` [Example 27-50], the EC50 in experiment [1] and in experiment [2] (setting [4]) was under 0.1 nM throughout.

As to `COC(=O)N[C@H](C(=O)N1CCC[C@H]1c1nc(-c2ccc(-c3cc(F)c(NC(=O)c4ccc(N5CCN(C(=O)[C@]6(C)CCCN6C(=O)OC)C[C@H]5C)nc4)cc3OC(F)(F)F)cc2)c[nH]1)C(C)C` [Example 27-42], the EC50 in experiment [1] and in experiment [2] (setting [4]) was under 0.1 nM in each case.

Regarding `CNC(=O)N1CCN(c2ccc(C(=O)Nc3ccc(-c4ccc(-c5nc([C@@H]6CCCN6C(=O)[C@@H](NC(=O)OC)C(C)C)[nH]c5Cl)cc4)cc3)cc2)CC1` [Example 11, {(S)-1-[(S)-2-(5-Chloro-4-{4′-[4-(4-methylcarbamoyl-piperazin-1-yl)-benzoylamino]-biphenyl-4-yl}-1H-imidazol-2-yl)-pyrrolidine-1-carbonyl]-2-methyl-propyl}-carbamic acid methyl ester], the EC50 in experiment [1] was under 0.1 nM; in experiment [2] (setting [3]) it was 0.1 to 1 nM.

Consider `COC(=O)N[C@H](C(=O)N1CCC[C@H]1c1nc(-c2ccc(-c3ccc(NC(=O)c4ccc(N5CCN(S(C)(=O)=O)CC5)cc4)cc3)cc2)c[nH]1)C(C)C` [Example 4, {(S)-1-[(S)-2-(4-{4′-[4-(4-Methanesulfonyl-piperazin-1-yl)-benzoylamino]-biphenyl-4-yl}-1H-imidazol-2-yl)-pyrrolidine-1-carbonyl]-2-methyl-propyl}-carbamic acid methyl ester], for which the EC50 in experiment [1] was under 0.1 nM; in experiment [2] (setting [3]), 10 to 100 nM.

Regarding `COC(=O)N[C@H](C(=O)N1CCC[C@H]1c1nc(-c2ccc(-c3ccc(NC(=O)c4ccc(N5CCN(C(=O)C6CC6)CC5)cc4)cc3)cc2)c[nH]1)C(C)C` [Example 1, {(S)-1-[(S)-2-(4-{4′-[4-(4-cyclopropanecarbonyl-piperazin-1-yl)-benzoylamino]-biphenyl-4-yl}-1H-imidazol-2-yl)-pyrrolidine-1-carbonyl]-2-methyl-propyl}-carbamic acid methyl ester], the EC50 was under 0.1 nM in experiment [1] and 1 to 10 nM in experiment [2] (setting [4]).

Take `COC(=O)N[C@H](C(=O)N1CCC[C@H]1c1nc(-c2ccc(-c3cc(Cl)c(NC(=O)c4ccc(N5C[C@H](C)N(C(=O)c6c[nH]cn6)C[C@H]5C)nc4)cc3OC(F)(F)F)cc2)c[nH]1)C(C)C` [Example 28-39]: the EC50 in experiment [1] and in experiment [2] (setting [4]) was under 0.1 nM throughout.

With `COC(=O)N[C@H](C(=O)N1CCC[C@H]1c1nc(-c2ccc(-c3ccc(NC(=O)c4ccc(N5CCN(C(=O)C6CC6)C[C@H]5C)nc4)cc3C)cc2)c[nH]1)C(C)C` [Example 17], the EC50 in experiment [1] is under 0.1 nM; in experiment [2] (setting [4]), 0.1 to 1 nM.

For the compound `COC(=O)N[C@H](C(=O)N1CCC[C@H]1c1nc(-c2ccc(-c3cc(F)c(NC(=O)c4ccc(N5CCN(C(=O)[C@]6(C)CCCN6C(=O)[C@@H](NC(=O)OC)C(C)C)C[C@H]5C)nc4)cc3C(F)(F)F)cc2)c[nH]1)C(C)C` [Example 52], the EC50 in experiment [1] and in experiment [2] (setting [4]) was under 0.1 nM each time.

`COC(=O)N[C@H](C(=O)N1CCC[C@H]1c1nc(-c2ccc(-c3cc(Cl)c(NC(=O)c4ccc(N5CCN(C(=O)[C@H]6CC6(C)C)C[C@H]5C)nc4)cc3C(F)(F)F)cc2)c[nH]1)C(C)C` [Example 61, [(S)-1-((S)-2-{4-[5′-Chloro-4′-({6-[(R)-4-((S)-2,2-dimethyl-cyclopropanecarbonyl)-2-methyl-piperazin-1-yl]-pyridine-3-carbonyl}-amino)-2′-trifluoromethyl-biphenyl-4-yl]-1H-imidazol-2-yl}-pyrrolidine-1-carbonyl)-2-methyl-propyl]-carbamic acid methyl ester]: the EC50 in experiment [1] and in experiment [2] (setting [4]) was under 0.1 nM each time.

Turning to `CNC(=O)N1C[C@@H](C)N(c2ccc(C(=O)Nc3cc(OC(F)(F)F)c(-c4ccc(-c5c[nH]c([C@@H]6CCCN6C(=O)[C@@H](NC(=O)OC)C(C)C)n5)cc4)cc3Cl)cn2)C[C@@H]1C` [Example 28-36], the EC50 in experiment [1] and in experiment [2] (setting [4]) was under 0.1 nM in each case.

The values above are taken from patent US8921372B2, “Inhibitors of hepatitis C virus” (Theravance Biopharma R&D IP, LLC, priority 2010, dated 2014).
